ChEMBL document CHEMBL1154793, “The lecanindoles, nonsteroidal progestins from the terrestrial fungus Verticillium lecanii 6144” (J Nat Prod, 2009)

What was measured:
Progesterone receptor = target: T1, Progesterone receptor (Homo sapiens, UniProt P06401); assay: Activation of progesterone receptor in human T47D cells at 1 uM after 20 hrs by PRE-tagged luciferase reporter gene assay; format: cell-based
T1 sequence (P06401 whole entry): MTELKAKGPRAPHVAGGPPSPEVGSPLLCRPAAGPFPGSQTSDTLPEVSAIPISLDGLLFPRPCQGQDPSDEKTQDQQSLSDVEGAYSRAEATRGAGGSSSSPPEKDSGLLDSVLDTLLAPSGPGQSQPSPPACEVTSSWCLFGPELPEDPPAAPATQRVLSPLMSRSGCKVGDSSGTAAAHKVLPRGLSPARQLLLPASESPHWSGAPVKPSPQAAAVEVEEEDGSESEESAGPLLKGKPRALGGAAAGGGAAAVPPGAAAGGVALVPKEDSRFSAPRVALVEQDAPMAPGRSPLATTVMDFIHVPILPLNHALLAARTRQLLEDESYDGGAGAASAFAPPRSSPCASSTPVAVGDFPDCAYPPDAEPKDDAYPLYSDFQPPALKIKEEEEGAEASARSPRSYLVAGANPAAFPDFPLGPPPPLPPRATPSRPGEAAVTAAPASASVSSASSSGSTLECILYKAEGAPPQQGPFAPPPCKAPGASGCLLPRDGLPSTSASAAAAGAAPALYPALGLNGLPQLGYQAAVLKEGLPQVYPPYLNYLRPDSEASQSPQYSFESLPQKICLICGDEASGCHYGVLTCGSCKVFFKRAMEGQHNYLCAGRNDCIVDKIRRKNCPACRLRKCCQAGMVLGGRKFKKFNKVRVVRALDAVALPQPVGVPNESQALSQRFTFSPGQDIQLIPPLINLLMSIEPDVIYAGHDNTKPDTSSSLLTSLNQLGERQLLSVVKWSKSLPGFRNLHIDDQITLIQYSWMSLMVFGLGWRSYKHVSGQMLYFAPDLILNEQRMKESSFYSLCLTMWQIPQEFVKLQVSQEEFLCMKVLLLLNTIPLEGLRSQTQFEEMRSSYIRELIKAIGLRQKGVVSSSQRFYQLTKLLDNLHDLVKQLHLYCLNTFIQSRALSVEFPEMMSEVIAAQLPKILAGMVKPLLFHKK

[1] = target: T2, Progesterone receptor (Homo sapiens) (UniProt P06401); assay: Activation of progesterone receptor in human T47D cells after 20 hrs by PRE-tagged luciferase reporter gene assay relative to control; format: cell-based
T2 sequence (whole entry): T1 sequence (P06401 whole entry)

| SMILES | EC50 (Progesterone receptor) | Efficacy [1] [%] |
| --- | --- | --- |
| CC1(C)[C@@H](O)CC[C@]2(C)[C@@]3(C)c4[nH]c5ccccc5c4C[C@@H]3CC[C@@]12O | Not Active |  |
| CC1(C)C(=O)C=C[C@]2(C)[C@@]3(C)c4[nH]c5ccccc5c4C[C@@H]3CC[C@@]12O |  | < 1 |
| CO[C@H]1[C@H](O)[C@@H](O)[C@H](Oc2ccc3c4c([nH]c3c2)[C@@]2(C)[C@@H](CC[C@H]3C(C)(C)C(=O)C=C[C@@]32C)C4)O[C@@H]1CO |  | < 1 |
